According to patent publication US20230139445A1, “BACTERIAL CELLS WITH IMPROVED TOLERANCE TO DIACIDS” (priority 2016, published 2023):
Like-named read-outs stand apart in the source and are kept apart here.

Legend:
[1] = tested on: Escherichia coli K-12 MG1655 and evolved isolates; assay type: cell-based; conditions: 45 g/L fumaric acid
Protocol: (§1) Five colonies from wild-type K-12 MG1655 and 10 individual colonies deriving from each population were inoculated into 300 μL M9+1% glucose in 96 well deepwell plates and incubated in a 300 rpm plate shaker at 37° C. The next day, cells were diluted 10× in M9+1% glucose and 30 μL was transferred into clear-bottomed 96 well half-deepwell plates (with rectangular wells) containing M9+1% glucose and M9+1% glucose+52.78 g/L glutaric acid or 55.56 g/L adipic acid, such that the final concentration of glutaric acid or adipic acid was 47.5 g/L or 50 g/L, respectively. In addition, cryogenic glycerol stocks of the overnight culture were saved in a 96 well plate format. Half deepwell plates were incubated at 37° C. with 225 rpm shaking in a Growth Profiler (Enzyscreen), with optical scans of the plates taken at 15 minute intervals. Green pixel values integrated over a 1 mm diameter circular area in each well were converted to OD600 values using a previously determined calibration between OD600 and green pixel values.
(§2) Additionally, each evolved isolate was tested for cross-tolerance toward other dicarboxylic acids of interest. […] All diacids tested were either the neutral sodium salts, or the free diacid was neutralized with sodium hydroxide to pH 7.0 for testing.

[2] = tested on: Escherichia coli K-12 MG1655; assay: Growth of K-12 MG1655 in varying concentrations of fumaric, itaconic, malic and succinic acid, Growth Profiler; assay type: cell-based
Protocol: as §1, §2

O=C(O)/C=C/C(=O)O [fumaric acid]
growth rate μ (mean) ([1]; strain ADIP1-1): 0.347 h⁻¹
lag time tlag (mean) ([1]; strain ADIP1-1): 10.2 h
growth rate μ (mean) ([1]; strain ADIP1-9): 0.328 h⁻¹
lag time tlag (mean) ([1]; strain ADIP1-9): 9.8 h
growth rate μ (mean) ([1]; strain ADIP2-5): 0.358 h⁻¹
lag time tlag (mean) ([1]; strain ADIP2-5): 11.4 h
growth rate μ (mean) ([1]; strain ADIP2-6): 0.380 h⁻¹
lag time tlag (mean) ([1]; strain ADIP2-6): 11.0 h
growth rate μ (mean) ([1]; strain ADIP2-10): 0.353 h⁻¹
lag time tlag (mean) ([1]; strain ADIP2-10): 11.0 h
growth rate μ (mean) ([1]; strain ADIP3-2): 0.327 h⁻¹
lag time tlag (mean) ([1]; strain ADIP3-2): 9.4 h
growth rate μ (mean) ([1]; strain ADIP3-4): 0.324 h⁻¹
lag time tlag (mean) ([1]; strain ADIP3-4): 9.7 h
growth rate μ (mean) ([1]; strain ADIP3-8): 0.343 h⁻¹
lag time tlag (mean) ([1]; strain ADIP3-8): 10.1 h
growth rate μ (mean) ([1]; strain ADIP4-1): 0.264 h⁻¹
lag time tlag (mean) ([1]; strain ADIP4-1): 11.9 h
growth rate μ (mean) ([1]; strain ADIP4-8): 0.254 h⁻¹
lag time tlag (mean) ([1]; strain ADIP4-8): 12.4 h
growth rate μ (mean) ([1]; strain ADIP5-2): 0.280 h⁻¹
lag time tlag (mean) ([1]; strain ADIP5-2): 10.6 h
growth rate μ (mean) ([1]; strain ADIP5-6): 0.444 h⁻¹
lag time tlag (mean) ([1]; strain ADIP5-6): 9.0 h
growth rate μ (mean) ([1]; strain ADIP6-3): 0.275 h⁻¹
lag time tlag (mean) ([1]; strain ADIP6-3): 11.3 h
growth rate μ (mean) ([1]; strain ADIP6-9): 0.250 h⁻¹
lag time tlag (mean) ([1]; strain ADIP6-9): 12.3 h
growth rate μ (mean) ([1]; strain ADIP6-10): 0.308 h⁻¹
lag time tlag (mean) ([1]; strain ADIP6-10): 10.0 h
growth rate μ (mean) ([1]; strain ADIP7-2): 0.312 h⁻¹
lag time tlag (mean) ([1]; strain ADIP7-2): 10.1 h
growth rate μ (mean) ([1]; strain ADIP7-5): 0.326 h⁻¹
lag time tlag (mean) ([1]; strain ADIP7-5): 10.0 h
growth rate μ (mean) ([1]; strain ADIP8-3): 0.202 h⁻¹
lag time tlag (mean) ([1]; strain ADIP8-3): 14.4 h
growth rate μ (mean) ([1]; strain ADIP8-7): 0.188 h⁻¹
lag time tlag (mean) ([1]; strain ADIP8-7): 16.1 h
growth rate μ (mean) ([1]; strain ADIP8-10): 0.221 h⁻¹
lag time tlag (mean) ([1]; strain ADIP8-10): 14.3 h
growth rate μ (mean) ([1]; strain GLUT1-3): 0.293 h⁻¹
lag time tlag (mean) ([1]; strain GLUT1-3): 13.3 h
growth rate μ (mean) ([1]; strain GLUT1-9): 0.274 h⁻¹
lag time tlag (mean) ([1]; strain GLUT1-9): 14.9 h
growth rate μ (mean) ([1]; strain GLUT1-10): 0.289 h⁻¹
lag time tlag (mean) ([1]; strain GLUT1-10): 18.9 h
growth rate μ (mean) ([1]; strain GLUT2-1): 0.277 h⁻¹
lag time tlag (mean) ([1]; strain GLUT2-1): 13.5 h
growth rate μ (mean) ([1]; strain GLUT2-9): 0.267 h⁻¹
lag time tlag (mean) ([1]; strain GLUT2-9): 12.2 h
growth rate μ (mean) ([1]; strain GLUT2-10): 0.312 h⁻¹
lag time tlag (mean) ([1]; strain GLUT2-10): 12.3 h
growth rate μ (mean) ([1]; strain GLUT3-5): 0.263 h⁻¹
lag time tlag (mean) ([1]; strain GLUT3-5): 16.6 h
growth rate μ (mean) ([1]; strain GLUT3-7): 0.264 h⁻¹
lag time tlag (mean) ([1]; strain GLUT3-7): 16.2 h
growth rate μ (mean) ([1]; strain GLUT3-9): 0.305 h⁻¹
lag time tlag (mean) ([1]; strain GLUT3-9): 24.3 h
growth rate μ (mean) ([1]; strain GLUT4-1): 0.295 h⁻¹
lag time tlag (mean) ([1]; strain GLUT4-1): 14.6 h
growth rate μ (mean) ([1]; strain GLUT4-4): 0.287 h⁻¹
lag time tlag (mean) ([1]; strain GLUT4-4): 15.3 h
growth rate μ (mean) ([1]; strain GLUT4-10): 0.274 h⁻¹
lag time tlag (mean) ([1]; strain GLUT4-10): 16.3 h
growth rate μ (mean) ([1]; strain GLUT5-4): 0.386 h⁻¹
lag time tlag (mean) ([1]; strain GLUT5-4): 14.1 h
growth rate μ (mean) ([1]; strain GLUT5-5): 0.375 h⁻¹
lag time tlag (mean) ([1]; strain GLUT5-5): 15.1 h
growth rate μ (mean) ([1]; strain GLUT5-9): 0.370 h⁻¹
lag time tlag (mean) ([1]; strain GLUT5-9): 14.9 h
growth rate μ (mean) ([1]; strain GLUT6-4): 0.281 h⁻¹
lag time tlag (mean) ([1]; strain GLUT6-4): 13.8 h
growth rate μ (mean) ([1]; strain GLUT6-5): 0.279 h⁻¹
lag time tlag (mean) ([1]; strain GLUT6-5): 13.2 h
growth rate μ (mean) ([1]; strain GLUT6-10): 0.277 h⁻¹
lag time tlag (mean) ([1]; strain GLUT6-10): 14.2 h
growth rate μ (mean) ([1]; strain GLUT7-2): 0.304 h⁻¹
lag time tlag (mean) ([1]; strain GLUT7-2): 14.6 h
growth rate μ (mean) ([1]; strain GLUT7-6): 0.261 h⁻¹
lag time tlag (mean) ([1]; strain GLUT7-6): 19.5 h
growth rate μ (mean) ([1]; strain GLUT7-7): 0.193 h⁻¹
lag time tlag (mean) ([1]; strain GLUT7-7): 22.0 h
growth rate μ (mean) ([1]; strain GLUT8-5): 0.247 h⁻¹
lag time tlag (mean) ([1]; strain GLUT8-5): 14.4 h
growth rate μ (mean) ([1]; strain GLUT8-6): 0.272 h⁻¹
lag time tlag (mean) ([1]; strain GLUT8-6): 43.5 h
growth rate μ (mean) ([1]; strain GLUT8-9): 0.196 h⁻¹
lag time tlag (mean) ([1]; strain GLUT8-9): 54.3 h
growth rate μ (mean) ([1]; strain MG1655 (Table 26)): 0.216 h⁻¹
lag time tlag (mean) ([1]; strain MG1655 (Table 26)): 16.6 h
growth rate μ (mean) ([1]; strain MG1655 (Table 27)): 0.212 h⁻¹
lag time tlag (mean) ([1]; strain MG1655 (Table 27)): 15.5 h
μ (mean) ([2]; growth rate of K-12 MG1655, 10 g/L diacid (sodium salt)): 0.662 h^1
μ (mean) ([2]; growth rate of K-12 MG1655, 20 g/L diacid (sodium salt)): 0.615 h^1
μ (mean) ([2]; growth rate of K-12 MG1655, 30 g/L diacid (sodium salt)): 0.482 h^1
μ (mean) ([2]; growth rate of K-12 MG1655, 40 g/L diacid (sodium salt)): 0.285 h^1
μ (mean) ([2]; growth rate of K-12 MG1655, 50 g/L diacid (sodium salt)): 0.116 h^1
tlag (mean) ([2]; lag time of K-12 MG1655, 10 g/L diacid (sodium salt)): 5.8 h
tlag (mean) ([2]; lag time of K-12 MG1655, 20 g/L diacid (sodium salt)): 6.9 h
tlag (mean) ([2]; lag time of K-12 MG1655, 30 g/L diacid (sodium salt)): 9.5 h
tlag (mean) ([2]; lag time of K-12 MG1655, 40 g/L diacid (sodium salt)): 15.4 h
tlag (mean) ([2]; lag time of K-12 MG1655, 50 g/L diacid (sodium salt)): 30.2 h
